Measured values: BigSolDB 2.1

C=C1C[C@]23C[C@@]1(O)CC[C@H]2[C@@]12C=C[C@H](O)[C@@](C)(C(=O)O1)[C@H]2[C@@H]3C(=O)O
solubility (mole fraction)
Conditions	278.15 K	283.15 K	288.15 K	293.15 K	298.15 K	303.15 K	308.15 K	313.15 K	318.15 K	323.15 K
in DMSO	0.121	0.138	0.159	0.184	0.207	0.233	0.263	0.291	0.323	0.362
in THF	0.149	0.173	0.199	0.227	0.252	0.279	0.31	0.341	0.371	0.401
in acetone	0.103	0.12	0.137	0.158	0.181	0.205	0.23	0.258	0.289	0.32
in acetonitrile	0.00864	0.0119	0.0155	0.0197	0.0243	0.0294	0.0352	0.0413	0.0481	0.0565
in chloroform	0.0222	0.0302	0.0386	0.0479	0.0591	0.0715	0.085	0.0994	0.114	0.13
in ethanol	0.181	0.205	0.231	0.257	0.284	0.312	0.344	0.374	0.404	0.438
in ethyl acetate	0.0679	0.0807	0.0956	0.112	0.132	0.152	0.175	0.203	0.235	0.271
in isopropanol	0.000502	0.000563	0.000625	0.000688	0.000752	0.000821	0.000888	0.00096	0.00103	0.00111
in n-butanol	0.0021	0.00318	0.00427	0.00554	0.00704	0.00876	0.0107	0.0129	0.0151	0.0173
in n-heptane	8.4e-05	0.000116	0.000152	0.000192	0.000236	0.000289	0.000349	0.000407	0.000471	0.000537
in n-hexane	0.00017	0.000202	0.000239	0.000282	0.00033	0.000386	0.000444	0.000511	0.000583	0.000666
